According to US9115170B2, “Methods and compositions related to internalizing RGD peptides” (Sanford-Burnham Medical Research Institute, priority 2008, dated 2015):

Key:
[1] = system: orthotopic 22Rv-1 human prostate cancer xenografts; experiment: Confocal microscopy of tumors after injection of peptides, phage and micelles; assay type: in vivo, mice; conditions: free peptides 2 hrs, phage 15 min, micelles 3 hrs circulation
Description: (§1) Statistical analysis was performed with Student's t-test.

PPC1 cells [2] = experiment: In vitro phage binding assay; assay type: cell-based, human; conditions: for effect of trypsin treatment on binding to PPC1 cells: treatment with trypsin; for phage binding to cells: PPC1 cells, 1 hour at 4° C., phage-displayed peptide
Description: (§2) PPC1 cells were incubated with the phage for 1 hour at 4° C. (A) or 37° C. (B). Phage that bound to the cell surface (A) or those that had internalized into the cells (B) were rescued for titration.
(§3) FIGS. 8A and 8B show the binding (A) and internalization (B) of phage displaying CG7C (control phage), iRGD1, and iRGD1 mutants that carry an alanine substitution for each amino acid (underlined) (SEQ ID NOs:1 and 304-310). PPC1 cells were incubated with the phage for 1 hour at 4° C. (A) or 37° C. (B). Phage that bound to the cell surface (A) or those that internalized into the cells were rescued for titration.
(§4) PPC1 cells were incubated with the phage for 1 hour at 4° C. (A) or 37° C. (B). Phage that bound to the cell surface (A) or those that had internalized into the cells were rescued for titration.
(§5) Suspended cells (10^6 cells in DMEM containing 1% BSA) were incubated with 10^8 pfu/ml of T7 phage for 1 hr at 4° C. The cells were washed 4 times with the binding buffer, lysed with lysogeny broth containing 1% NP-40, and titrated. Phage internalization assays used the same procedure, except that the cells were incubated with phage at 37° C., and that an acidic buffer (500 mM sodium chloride, 0.1 M glycine, 1% BSA, pH 2.5) was substituted for the binding buffer in the second wash. Inhibitors of binding and internalization were added 20 min prior to incubation with phage. Non-infectious phage were prepared by treating phage with UV for 8 min in DMEM containing 1% BSA. The resulting UV-inactivated phage particles expressing about 200 peptides per particle were used as multivalent inhibitors. Free synthetic peptides, mouse antibodies against human α1, α2, αvβ3, αvβ5, α5β1, α4, or αv integrins and integrin subunits (Chemicon), goat anti-rat neuropilin-1 (R&D Systems, Minneapolis, Minn.), with mouse and a goat IgG isotype controls (Abcam) were also tested.

αv integrins = conditions: Koivunen et al. 1993, 1995; cited from earlier work
PPC1 cells [3] = experiment: In vitro phage internalization assay; assay type: cell-based, human; conditions: for phage internalization into cells: 1 hour at 37° C., acid wash, phage-displayed peptide
Description: as §2, §3, §4
To assess the internalization, the phage that bound to the cell surface were removed by washing the cells with acid buffer before phage titration. […] Statistical analysis was performed with Student's t-test. n=3, error bars represent s.d.
Mice were maintained in accordance with institutional guidelines and the animal experiments were approved by the Animal Research Committees at University of California, Santa Barbara and San Francisco. We used transgenic tumor mice (Bardeesy and DePinho, (2002); Arbeit et al., Progressive squamous epithelial neoplasia in K14-human papillomavirus type 16 transgenic mice. J. Virol. 68, 4358-4368 (1994); Hanahan, Heritable formation of pancreatic β-cell tumors in transgenic mice expressing recombinant insulin/simian virus 40 oncogenes. Nature 315, 115-122 (1985)) and xenograft tumors generated by injecting BALB/c nude mice (Harlan Sprague Dawley, Indianapolis, Ind.) with 10^6 human cancer cells orthotopically, intracardiacly or into the brain and tibia. […] Phage homing studies in vivo and cell binding studies in vitro (Zhang et al., (2006)), immunofluorescence (Karmali et al. (2008)) and flow cytometry (Sugahara et al., Hyaluronan oligosaccharides induce CD44 cleavage and promote cell migration in CD44-expressing tumor cells. J. Biol. Chem. 278, 32259-32265 (2003)) were done as described. Whole body imaging was performed 3 hrs after injecting the Cy7-labelled micelles with the Odyssey Infrared Imaging System (LI-COR Biosciences, Lincoln, Nebr.). In phage internalization assays, the cells were treated with 10^9 plaque forming units (pfu) of phage for 1 hr at 37° C., washed with an acidic buffer (glycine-HCl, pH 2.5) to remove and inactivate phage bound to the cell surface, and lysed for phage titration. Peptide internalization was studied by incubating cells with 20 μM of FAM-labelled peptide for 90 min at 37° C. […] To inhibit the binding and/or internalization of the phage, synthetic peptides or phage rendered non-infectious by UV-irradiation were added to the cells 20 min before incubation with the test phage. FAM-labelled peptides in tissues were quantified by measuring the fluorescence with Image J software. Student's t-test and one-way analysis of variance (ANOVA) followed by a suitable post hoc t-test were used for statistical analysis (Table 3).
as §5, with “Free synthetic peptides, mouse antibodies against human α1, α2, αvβ3, αvβ5, α5β1, α4, or αv integrins and integrin subunits (Chemicon), goat anti-rat neuropilin-1 (R&D Systems, Minneapolis, Minn.), with mouse and a goat IgG isotype controls (Abcam) were also tested.” left out

PPC1 cells [4] = experiment: Confocal microscopy of cells incubated with phage; assay type: cell-based, human
Text: Phage bound to the cell surface were removed by washing the cells with a acidic buffer, and internalized phage were rescued and titrated.
The cells were stained for phage, neuropilin-1, and nuclei. The right panel is a high magnification view of the dotted area in the left panel. […] In almost all tumor ducts examined, αv integrins were positive. […] Scale bars=50 μm.
The cells were stained for phage (arrowed), neuropilin-1 (distal and flanking), and nuclei (central mass). The right panel of […] (SEQ ID NO:298) phage is a high magnification view of the dotted area in the left panel. […] Scale bars=10 μm.
Tissue sections were processed as described (Karmali et al. (2008)). Cells (2×10^5 cells) were grown on collagen I-coated coverslips (BD Biosciences, San Jose, Calif.) overnight, and incubated with 10^8 pfu/ml of T7 phage for 30 min. The cells were fixed in 4% paraformaldehyde, and stained with antibodies and DAPI (Molecular Probes, Eugene, Oreg.). The primary antibodies were rat anti-mouse CD31 monoclonal antibody (BD Biosciences), and rabbit anti-human αv integrin (Chemicon, Temecula, Calif.), rabbit anti-human neuropilin-1 (Chemicon), mouse anti-human neuropilin-1 (Miltenyi Biotec, Auburn, Calif.), and rabbit anti-T7 phage polyclonal antibodies. […]

PPC1 cells [5] = experiment: Inhibition of iRGD phage internalization into PPC1 cells; assay type: cell-based, human; conditions: 37° C.; inhibitor added before test phage
Description: (§6) Phage that bound to the cell surface were titered. B, PPC1 cells were treated as described in A except that they were co-incubated with iRGD1 or CG7C phage at 37° C. The internalized phage were rescued for titering as described in the legend for FIG. 5A.
(§7) A, PPC1 cells were pre-treated with or without series of anti-integrin antibodies, or with normal mouse IgG as a control, for 30 min at 4° C., followed by incubation with iRGD1 phage or CG7C control phage for 1 hour at 4° C. (A) or 37° C. (B). Phage that bound to the cell surface (A) or those that internalized into the cells (B) were rescued and titrated.
(§8) Statistical analyses were performed with ANOVA (a, b, d) or Student's t-test (c, e).
(§9) Suspended cells (10^6 cells in DMEM containing 1% BSA) were incubated with 10^8 pfu/ml of T7 phage for 1 hr at 4° C. The cells were washed 4 times with the binding buffer, lysed with lysogeny broth containing 1% NP-40, and titrated. Phage internalization assays used the same procedure, except that the cells were incubated with phage at 37° C., and that an acidic buffer (500 mM sodium chloride, 0.1 M glycine, 1% BSA, pH 2.5) was substituted for the binding buffer in the second wash. Inhibitors of binding and internalization were added 20 min prior to incubation with phage. Non-infectious phage were prepared by treating phage with UV for 8 min in DMEM containing 1% BSA. […]

M21 cells = experiment: CRGDK phage binding and internalization, M21 cells; assay type: cell-based, human
Description: as §8, §5

PPC1 cells [6] = experiment: Inhibition of iRGE phage internalization within PPC1 cells; assay type: cell-based, human; conditions: non-infectious phage as inhibitor
Description: as §8, §5

[7] = system: pancreatic ductal adenocarcinoma (PDAC) tumors; experiment: In vivo homing of FAM-labelled peptide to PDAC tumors; parameters: species or system mice; conditions: for effect of excess unlabelled peptide on accumulation of FAM-iRGD in tumors: 10-fold excess injected 30 min before FAM-iRGD
Description: FIGS. 3A and 3B show tumor homing of iRGD1 peptide into murine pancreatic carcinoma. A, 200 μg of […] iRGD1 peptide was injected through the tail vein into transgenic mice with pancreatic ductal adenocarcinoma (PDAC) and the peptide was allowed to circulate for 4.5 hrs. B, An excess of non-labeled iRGD1 (2 mg/mouse) was injected into the PDAC mice 30 min prior to the injection of the […] iRGD1 peptide as described in A. Shown are harvested organs observed under UV light (left) and white light (right).
Approximately 200 μg of FAM-iRGD1 was injected into mice bearing PDACs and allowed to circulate for 15 min (A), 30 min (B), 2 hrs (C) and 4.5 hrs (D). The nuclear staining with DAPI and vascular endothelial cell staining with an anti-CD31 antibody, respectively are shown. Note that at 15 (A) to 30 min (B) post-injection of FAM-iRGD1, the dye stays in the vessels (arrows) or in the cells surrounding the vessels (A, arrowheads in window at the right upper corner), but no vascular staining with the peptides is observed after 2 hrs (C, arrow) or 4.5 hrs (D, arrow). At 30 min post peptide injection, the peptide fluorescence appears in tumor glands (B, main panel and upper right corner inset); some individual cells within the tumor are strongly positive after 2 hrs (C, asterisks) and 4.5 hrs (D, asterisk).
as §1
Approximately 200 μg of […] iRGD1 peptide (FAM-iRGD1) was injected through the tail vein into immuno-deficient mice bearing xenograft of PPC1 human prostate carcinoma, MIA PaCa-2 human pancreatic carcinoma, or MDA-MB-435 human breast carcinoma and was allowed to circulate for 4.5 hrs (FIG. 2). […] Confocal microscopy of PDAC tumor sections from animals injected with FAM-iRGD1 indicated time-dependent in vivo homing dynamics for this peptide. […] The peptide fluorescence associated with the tumors cells was condensed into the perinuclear area of the tumor cells (FIGS. 4C and 4D, asterisks).

PPC1 cells [8] = experiment: Inhibition of iRGD phage binding to PPC1 cells; assay type: cell-based, human; conditions: 4° C.; inhibitor added before test phage
Description: as §6, §7, §9

M21 human melanoma cells = experiment: iRGD phage binding to M21 cells; assay type: cell-based
Description: as §5

PPC1 cells [9] = experiment: Inhibition of trypsin-treated iRGD phage binding to PPC1 cells; assay type: cell-based, human; conditions: 4° C.; non-infectious phage as inhibitor
Description: as §8, §5

PPC1 cells [10] = experiment: Inhibition of CRGDK phage binding to PPC1 cells; assay type: cell-based, human
Description: as §8, §5

CDCRGDCFC [RGD-4C]
distribution within tumor (confocal microscopy) [1]: accumulated only in and around tumor blood vessels | effect of trypsin treatment on binding to PPC1 cells (PPC1 cells [2]): no effect | affinity for αv integrins (αv integrins): strong affinity

CRG [CRG phage]
phage binding to cells (PPC1 cells [2]): did not | phage internalization into cells (PPC1 cells [3]): did not

CRGD [CRGD phage]
phage binding to cells (PPC1 cells [2]): did not | phage internalization into cells (PPC1 cells [3]): did not

CRGDC
distribution within tumor (confocal microscopy) [1]: accumulated only in and around tumor blood vessels | effect of trypsin treatment on binding to PPC1 cells (PPC1 cells [2]): no effect | affinity for αv integrins (αv integrins): strong affinity

CRGDGGPDC
co-localization with neuropilin-1 (confocal microscopy) (PPC1 cells [4]): did not co-localize | internalization into cells (confocal microscopy) (PPC1 cells [4]): nor did they internalize

CRGDK [CRGDK phage]
phage binding to cells (PPC1 cells [2]): bound to | internalization relative to iRGD phage (PPC1 cells [3]; 37° C.): more efficiently than iRGD phage | phage internalization into cells (PPC1 cells [3]): internalized | inhibition of iRGD phage internalization into PPC1 cells (PPC1 cells [5]): blocked | binding to M21 cells with different αv integrin expression levels (M21 cells): binds similarly | phage binding to M21 cells with minimal expression of neuropilin-1 (M21 cells): did not substantially bind | phage internalization into M21 cells with minimal expression of neuropilin-1 (M21 cells; 1 hour at 37° C.): did not substantially bind to or internalize | increase of binding by forced expression of neuropilin-1 (M21 cells; M21 cells transfected with neuropilin-1 cDNA): 3.5 fold | increase of internalization by forced expression of neuropilin-1 (M21 cells; M21 cells transfected with neuropilin-1 cDNA, not shown): 3.5 fold | internalization relative to iRGD phage (M21 cells; M21 cells, 1 hour at 37° C.): reversed | inhibition of iRGE phage internalization within PPC1 cells (PPC1 cells [6]): inhibited the internalization

CRGDKG [CRGDKG phage]
phage binding to cells (PPC1 cells [2]): bound | phage internalization into cells (PPC1 cells [3]): internalized

CRGDKGPDC [iRGD1]
effect of excess unlabeled peptide on accumulation of FAM-iRGD1 in PDAC tumors ([7]; 2 mg/mouse 30 min prior to FAM-iRGD1): inhibited the accumulation | effect of excess unlabelled peptide on accumulation of FAM-iRGD in tumors [7]: greatly reduced | inhibition of iRGD phage binding to PPC1 cells (PPC1 cells [8]): inhibited in a dose-dependent manner | binding to M21 cells that express both αvβ3 and αvβ5 (M21 human melanoma cells): bound | binding to M21 variants lacking expression of αvβ3 and αvβ5 (M21 human melanoma cells): did not

CRGDKGPEC [iRGD3]
phage binding to cells (PPC1 cells [2]): similar | phage internalization into cells (PPC1 cells [3]): similar

CRGDRGPDC [iRGD2]
phage binding to cells (PPC1 cells [2]): similar | phage internalization into cells (PPC1 cells [3]): similar

CRGEKGPDC [iRGE, reference compound]
effect of excess unlabelled peptide on accumulation of FAM-iRGD in tumors [7]: did not have the same effect

RPARPAR [RPARPAR phage]
inhibition of iRGD phage internalization into PPC1 cells (PPC1 cells [5]): blocked | inhibition of binding of trypsin-treated iRGD phage (PPC1 cells [9]): blocked | inhibition of CRGDK phage binding to PPC1 cells (PPC1 cells [10]): dose-dependently inhibited | inhibition of iRGE phage internalization within PPC1 cells (PPC1 cells [6]): inhibited the internalization
